Tests used:
[1] = tested on: HepG2 cells infected with hepatitis C virus; assay: In vitro anti-HCV screening, qualitative RT-PCR of viral RNA; format: cell-based, HCV genotype-4; settings: at the used dose (below LD0 on HepG2 and PBMCs), 72 h; Positive = disappearance of viral RNA-amplified product (174 bp)
From the text: The safe compounds on RBCs (5a-g, 5i-l, 5p-r, 5v-w, 6b-g) were screened for their in vitro anti-HCV activity using the HCC HepG2 cell line infected with the HCV. Monitoring of the HCV viremia pre- and post-antiviral therapy through the detection of viral RNA using qualitative reverse transcription-PCR (RT-PCR) was adopted in the present investigation. This technique was reported to be the most frequently used, reliable and sensitive technique. Inhibition of viral replication was detected by amplification of viral RNA segments by the RT-PCR technique both in the cultivated infected cells alone (as a positive control) and at the specified dose for each test compound at optimal temperature. The test compound was considered to be active when it can inhibit the viral replication inside the HCV-infected HepG2 cells, as evidenced by the disappearance of the viral RNA-amplified products detected by the RT-PCR (compared with positive control).
The used concentration of each compound was chosen to be lower than the LD0 on HepG2 cells. Therefore, 100% viability of HepG2 cells was maintained, to make sure that any inhibitory effect was due to anti-HCV activity rather than cytotoxic activity on HepG2 cells. Moreover, the used concentrations were also chosen to be lower than the LD0 on PBMCs. Consequently, these doses could be used for inhibition of HCV in normal cells infected with the virus.
HepG2 cells were washed twice in RPMI-1640 medium supplemented with 200 μM L-glutamine and […] HEPES buffer. The cells were suspended at 12 × 10^4 cells/ml in RPMI culture medium (RPMI supplemented medium and 10% FBS). The appropriate number of cells to be used was chosen to be 12 × 10^3 cells/well (100 μl of the prepared suspension), and the cells were left to adhere on the polystyrene […] plates in an incubator at 37°C, 5% CO2 and 95% humidity for 24 h. The cells were washed once using RPMI supplemented medium, then infected with 2% HCV-infected serum (the used serum was a pole of ten patients infected with HCV genotype-4 with viral loads: 3.2–9 million IU/ml, G4 HCV RNA) in RPMI culture medium containing 8% FBS. The used dose of each compound was chosen so as to maintain 100% viability of the HepG2 cell line (the dose was lower than the LD0 of each compound on HepG2 cells as calculated from the in vitro anticancer screening). It was reported that, cultured HepG2 cells lost their biotransformation activity due to decrease in cytochrome (CYP) transcription. This waived its effect on the compounds stability during the test. Negative control is HepG2 cells with culture medium without addition of HCV infected serum or addition of tested compounds. Positive control is HepG2 cells with culture medium and infected HCV serum but without addition of tested compounds. After addition of the compounds, the plates were incubated at 37°C, 5% CO2 and 95% humidity for 72 h, followed by RNA extraction. The RNA strand was detected by RT-PCR using HCV-specific primers to the […] region of the virus.
RNA was extracted from HepG2 cells using the method described by El-Awady et al.. Culture cells were mixed with 200 μl of 4 mol/l guanidinium isothiocyanate (Fischer Bioreagents) containing 25 mmol/l sodium citrate (MP Biomedicals, CA, USA), 0.5% sarkosyl (Fischer Bioreagents), 0.1 mol/l β-mercaptoethanol (MP Biomedicals), and 100 μl sodium acetate (Merck). The lysed cells were mixed with an equal volume of phenol, chloroform and isoamyl alcohol (25:24:1, pH 4; Fischer Bioreagents). After vortexing, the mixture was centrifuged (14,000 r.p.m. for 10 min) at 4°C. The aqueous layer was collected and mixed with an equal volume of isopropanol (Acros Organics, Geel, Belgium). After incubation at -20°C overnight, RNA was precipitated by centrifugation (14,000 r.p.m. for 30 min) at 4°C, and the precipitated RNA was washed twice with 70% ethanol. […]

[2] = tested on: human peripheral blood mononuclear cells (PBMCs); format: cell-based; settings: 72 h
Method: The safe compounds on RBCs (5a-g, 5i-l, 5p-r, 5v-w, 6b-g) were subjected to the in vitro cytotoxicity assay on human peripheral blood mononuclear cells (PBMCs). Viability of cells was measured using neutral red uptake assay as described by Borenfreund and Puerner to determine the concentrations of each compound that were not cytotoxic. The results were interpreted to calculate both the lethal concentration that kills 50% of cells (LD50) and the maximum safe concentration that causes 100% viability (LD0) of each compound using GraphPad InStat 3.0 software (Figure 6 & Supplementary Table 3).
The PBMCs were isolated by density gradient centrifugation technique as described by Boyum. Blood samples were freshly collected into heparinized or ethylenediaminetetraacetic acid sterile tubes. Blood was diluted using equal volume of RPMI-1640 medium containing 25 mM HEPES and then layered over equal volume of Ficoll-Pague™ Plus (Fisher BioReagents™ Lymphocyte Separation Medium-LSM, PA, USA) and centrifuged (2000 r.p.m. for 30 min at acceleration and deceleration speeds zero & zero) at room temperature. The buffy mononuclear cell layer was collected using sterile Pasteur pipette into 50 ml sterile Falcon tube and washed twice in phosphate-buffered saline (Sigma-Aldrich) using centrifugation (1650 r.p.m. for 5 min). The isolated PBMCs viability was determined by hemocytometer count using the trypan blue exclusion method. The PBMCs were resuspended at 1 × 10^6 cells/ml in RPMI-1640 medium containing 25 mM HEPES supplemented with 10% heat-inactivated FBS. The appropriate number of cells was chosen to be 1 × 10^5 cells/well (100 μl of the prepared suspension).
A 2 mg/ml stock solution of each compound was prepared in DMF and filtered using a 0.2 μM syringe filter. The desired concentrations (20, 10, 5, 2.5 and 1.25 μg/ml) were prepared using serial dilution in a 96-well plate. Compound wells were prepared by adding 100 μl of the previously prepared concentrations to a suspension of 1 × 10^5 PBMCs in 100 μl culture media. Parallel concentrations of the solvent were prepared to be used as controls. Control wells were prepared by adding 100 μl culture media to a suspension of 1 × 10^5 PBMCs in 100 μl culture media. Blank wells contained 200 μl of culture media only (without cells or compound solution). Each set of samples was pipetted in duplicate. The plate was then gently shaken then incubated at 37°C, 5% CO2 for 72 h.
After incubation, neutral red assay was performed as described previously, and surviving cell fraction was calculated according to the previously mentioned equation. Also, the results were interpreted to calculate both the lethal concentration that kills 50% of cells (LD50) and the maximum safe concentration that cause 100% viability (LD0) of each compound using GraphPad InStat 3.0 software.

| SMILES | Result (anti-HCV screening) [1] | (LD0) PBMCs [2] [µg/mL] | LD0 [2] [µg/mL] | LD50 [2] [µg/mL] | LD50 (PBMCs) [2] [µg/mL] | LD0 on PBMCs [2] |
| --- | --- | --- | --- | --- | --- | --- |
| CC(=NN=C1SC(=C2C(=O)Nc3ccccc32)C(=O)N1c1ccc(Cl)cc1)c1cc2ccccc2o1 [Compound 6b, 2-[1-(Benzofuran-2-yl)ethylidenehydrazono]-5-(2-oxoindolin-3-ylidene)-3-(4-chlorophenyl)thiazolidin-4-one] | Negative | 18.18 | 18.18 | 61.46 | – | – |
| COc1ccc(N2C(=O)C(=C3C(=O)Nc4ccccc43)SC2=NN=C(C)c2cc3ccccc3o2)cc1 [Compound 6c, 2-[1-(Benzofuran-2-yl)ethylidenehydrazono]-5-(2-oxoindolin-3-ylidene)-3-(4-methoxyphenyl)thiazolidin-4-one] | Negative | 11.41 | 11.41 | 28.67 | 28.67 | – |
| CC(=NN=C1SC(=C2C(=O)Nc3ccccc32)C(=O)N1C1CCCCC1)c1cc2ccccc2o1 [Compound 6d, 2-[1-(Benzofuran-2-yl)ethylidenehydrazono]-5-(2-oxoindolin-3-ylidene)-3-cyclohexylthiazolidin-4-one] | Negative | 5.21 | 5.21 | 14.32 | 14.32 | – |
| CC(=NN=C1SC(=C2C(=O)Nc3ccccc32)C(=O)N1c1ccccc1)c1nc2ccccc2[nH]1 [Compound 6e, 2-[1-(1H-Benzimidazole-2-yl)ethylidenehydrazono]-5-(2-oxoindolin-3-ylidene)-3-phenylthiazolidin-4-one] | Negative | 19.22 | 19.22 | 329.03 | – | – |
| CC(=NN=C1SC(=C2C(=O)Nc3ccccc32)C(=O)N1c1ccc(Cl)cc1)c1nc2ccccc2[nH]1 [Compound 6f, 2-[1-(1H-Benzimidazole-2-yl)ethylidenehydrazono]-5-(2-oxoindolin-3-ylidene)-3-(4-chlorophenyl)thiazolidin-4-one] | Negative | 253.34 | 253.34 | 1369.42 | – | relatively high LD0 values |
| COc1ccc(N2C(=O)C(=C3C(=O)Nc4ccccc43)SC2=NN=C(C)c2nc3ccccc3[nH]2)cc1 [Compound 6g, 2-[1-(1H-Benzimidazole-2-yl)ethylidenehydrazono]-5-(2-oxoindolin-3-ylidene)-3-(4-methoxyphenyl)thiazolidin-4-one] | Negative | 14.41 | 14.41 | 136.76 | – | – |

— paper PMC5729604, “Dual inhibitors of hepatitis C virus and hepatocellular carcinoma: design, synthesis and docking studies” (Future Science OA, 2017)
